# Data as given in patent US20160304556A1, “[…] ACTIVE COMPOUNDS AND THEIR METHODS OF USE” (AGIOS PHARMACEUTICALS, INC, priority 2012, published 2016).
# Columns and labels:
# IDH1 R132H = IDH1 R132H (Homo sapiens, UniProt O75874, R132H); assay: In vitro NADPH depletion assay for IDH1m R132H inhibitors; type: biochemical; conditions: enzyme, diaphorase/resazurin readout, read-out: IDH R132H IC50
# Method: A test compound is prepared as 10 mM stock in DMSO and diluted to 50× final concentration in DMSO, for a 50 μl reaction mixture. IDH enzyme activity converting alpha-ketoglutarate to 2-hydroxyglutaric acid is measured using a NADPH depletion assay. In the assay the remaining cofactor is measured at the end of the reaction with the addition of a catalytic excess of diaphorase and resazurin, to generate a fluorescent signal in proportion to the amount of NADPH remaining. IDH1-R132 homodimer enzyme is diluted to […] in 40 μl of Assay Buffer(150 mM NaCl, 20 mM Tris-Cl pH 7.5, 10 mM MgCl2, 0.05% BSA, 2 mM b-mercaptoethanol); 1 μl of test compound dilution in DMSO is added and the mixture is incubated for 60 minutes at room temperature. The reaction is started with the addition of 10 μl of Substrate Mix ([…], 5 mM alpha-ketoglutarate, in Assay Buffer) and the mixture is incubated for 90 minutes at room temperature. The reaction is terminated with the addition of 25 μl of Detection Buffer (36 μg/ml diaphorase, […], in 1× Assay Buffer), and is incubated for 1 minute before reading on a SpectraMax platereader at Ex544/Em590.
# Representative compounds of formula I set forth in Table 1 were tested in this assay and the results are set forth below in Table 3.
# HT1080 cells = assay: Cellular assay, inhibition of 2-HG production (LC-MS) in HT1080 cells; type: cell-based; conditions: Homo sapiens, HT-1080, 48 hours, LC-MS of media
# Method: Cells (HT1080 or U87MG) are grown in T125 flasks in DMEM containing 10% FBS, 1× penicillin/streptomycin and 500 ug/mL G418 (present in U87MG cells only). They are harvested by trypsin and seeded into 96 well white bottom plates at a density of 5000 cell/well in 100 μl/well in DMEM with 10% FBS. No cells are placed in columns 1 and 12. Cells are incubated overnight at 37° C. in 5% CO2. The next day test compounds are made up at 2× the final concentration and 100 μl are added to each cell well. The final concentration of DMSO is 0.2% and the DMSO control wells are plated in row G. The plates are then placed in the incubator for 48 hours. At 48 hours, 100 μl of media is removed from each well and analyzed by LC-MS for 2-HG concentrations. The cell plate is placed back in the incubator for another 24 hours. At 72 hours post compound addition, 10 mL/plate of Promega Cell Titer Glo reagent is thawed and mixed. The cell plate is removed from the incubator and allowed to equilibrate to room temperature. Then 100 μl of Promega Cell Titer Glo reagent is added to each well of media. The cell plate is then placed on an orbital shaker for 10 minutes and then allowed to sit at room temperature for 20 minutes. The plate is then read for luminescence with an integration time of 500 ms.
# The IC50 for inhibition of 2-HG production (concentration of test compound to reduce 2HG production by 50% compared to control) in these two cell lines for various compounds of formula I is set forth in Table 2 above.
# IDH1 R132H, sequence (O75874 whole entry R132H): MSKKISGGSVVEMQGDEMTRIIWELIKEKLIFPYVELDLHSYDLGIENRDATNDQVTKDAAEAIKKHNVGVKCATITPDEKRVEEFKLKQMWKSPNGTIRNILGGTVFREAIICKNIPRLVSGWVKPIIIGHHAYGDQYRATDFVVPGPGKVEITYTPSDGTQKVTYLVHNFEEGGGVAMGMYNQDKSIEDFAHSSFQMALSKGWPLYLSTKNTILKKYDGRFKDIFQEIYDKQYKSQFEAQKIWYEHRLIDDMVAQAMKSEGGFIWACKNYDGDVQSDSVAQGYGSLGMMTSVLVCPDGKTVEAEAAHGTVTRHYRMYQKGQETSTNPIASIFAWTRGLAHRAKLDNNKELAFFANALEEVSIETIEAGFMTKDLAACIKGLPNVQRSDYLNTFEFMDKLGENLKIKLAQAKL
Structure (SMILES),IC50 (IDH1 R132H),IC50 (HT1080 cells)
"O=C(NC1CC(F)(F)C1)[C@@H](c1ccccc1Cl)N(C(=O)[C@@H]1Cc2ccccc2N1)c1cc(F)cc(F)c1 (single isomer, unassigned) [Compound 117]",100 to 500 nM,–
"O=C(NC1CC(F)(F)C1)[C@H](c1ccccc1Cl)N(C(=O)[C@@H]1Cc2ccccc2N1)c1cc(F)cc(F)c1 (single isomer, unassigned) [Compound 118]",100 to 500 nM,100 to 500 nM
O=C(NC1CC(F)(F)C1)C(c1ccccc1Cl)N(C(=O)[C@@H]1CCCc2nccn21)c1cccc(F)c1 (stereo in doubt) [Compound 41],≤ 100 nM,100 to 500 nM
Cc1ccccc1[C@@H](C(=O)NC1CCCCC1)N(C(=O)[C@@H]1CCCN1S(C)(=O)=O)c1cccc(F)c1 [Compound 1],500 to 1000 nM,–
Cc1ccccc1[C@@H](C(=O)NC1CCCCC1)N(C(=O)[C@H]1CCCN1S(C)(=O)=O)c1cccc(F)c1 [Compound 2],100 to 500 nM,1000 to 2000 nM
CNC(=O)N1CCCC[C@@H]1C(=O)N(c1cccc(F)c1)[C@H](C(=O)NC1CCCCC1)c1ccccc1C [Compound 3],500 to 1000 nM,–
Cc1ccccc1[C@@H](C(=O)NC1CCCCC1)N(C(=O)[C@H]1CCCCN1C(=O)N(C)C)c1cccc(F)c1 [Compound 4],500 to 1000 nM,–
COC(=O)N(C)[C@@H](C)C(=O)N(c1cccc(F)c1)[C@H](C(=O)NC1CCCCC1)c1ccccc1C [Compound 5],≤ 100 nM,500 to 1000 nM
CCS(=O)(=O)NCC(=O)N(c1cccc(F)c1)C(C(=O)NC1CCCCC1)c1ccccc1C (stereo not drawn) [Compound 6],100 to 500 nM,1000 to 2000 nM
Cc1ccccc1C(C(=O)NC1CCCCC1)N(C(=O)CNC(=O)OC(C)(C)C)c1cccc(F)c1 (stereo not drawn) [Compound 7],500 to 1000 nM,–
Cc1ccccc1C(C(=O)NC1CCCCC1)N(C(=O)CCNC(=O)OC(C)(C)C)c1cccc(F)c1 (stereo not drawn) [Compound 8],500 to 1000 nM,–
CC(=O)N1CCC[C@H]1C(=O)N(c1cccc(F)c1)[C@H](C(=O)NC1CCCCC1)c1ccccc1C [Compound 9],100 to 500 nM,1000 to 2000 nM
CC(=O)N1CCC[C@@H]1C(=O)N(c1cccc(F)c1)[C@H](C(=O)NC1CCCCC1)c1ccccc1C [Compound 10],100 to 500 nM,–
COC(=O)NCCC(=O)N(c1cccc(F)c1)C(C(=O)NC1CCCCC1)c1ccccc1C (stereo not drawn) [Compound 12],100 to 500 nM,–
CNC(=O)N1CCC[C@@H]1C(=O)N(c1cccc(F)c1)[C@H](C(=O)NC1CCCCC1)c1ccccc1C [Compound 13],500 to 1000 nM,–
Cc1ccccc1[C@@H](C(=O)NC1CCCCC1)N(C(=O)[C@H]1CCCN1)c1cccc(F)c1 [Compound 14],500 to 1000 nM,–

Structure (SMILES),IC50 (IDH1 R132H),IC50 (HT1080 cells)
Cc1ccccc1C(C(=O)NC1CC2CC2C1)N(C(=O)CNc1cccnc1F)c1cccc(F)c1 (stereo not drawn) [Compound 15],100 to 500 nM,–
Cc1ccccc1C(C(=O)NC1CC(F)(F)C1)N(C(=O)CNc1ncccc1F)c1cccc(F)c1 (stereo not drawn) [Compound 17],100 to 500 nM,100 to 500 nM
Cc1ccccc1C(C(=O)NC1CC(F)(F)C1)N(C(=O)Cn1ccnc1C)c1cccc(F)c1 (stereo not drawn) [Compound 18],500 to 1000 nM,1000 to 2000 nM
Cc1ccccc1C(C(=O)NC1CC(F)(F)C1)N(C(=O)CNc1cccnc1F)c1cccc(F)c1 (stereo not drawn) [Compound 19],–,100 to 500 nM
O=C(NC1CCCCC1)C(c1ccccc1Cl)N(C(=O)c1cc2ccccc2[nH]1)c1cccc(F)c1 (stereo not drawn) [Compound 20],500 to 1000 nM,–
O=C(NC1CCCCC1)C(c1ccccc1Cl)N(C(=O)Cn1cncn1)c1cccc(F)c1 (stereo not drawn) [Compound 24],≤ 100 nM,100 to 500 nM
"Cc1nccn1CC(=O)N(c1cccc(-c2nnco2)c1)C(C(=O)NC1CCCCC1)c1ccccc1Cl (stereo not drawn) [Compound 25, N-(3-(1,3,4-oxadiazol-2-yl)phenyl)-N-(1-(2-chlorophenyl)-2-(cyclohexylamino)-2-oxoethyl)-2-(2-methyl-1H-imidazol-1-yl)acetamide]",100 to 500 nM,1000 to 2000 nM
Cc1nccn1CC(=O)N(c1cccc2[nH]ncc12)C(C(=O)NC1CCCCC1)c1ccccc1Cl (stereo not drawn) [Compound 26],100 to 500 nM,1000 to 2000 nM
"O=C(NC1CCCCC1)C(c1ccccc1Cl)N(C(=O)C1CCc2ccccc2N1)c1cccc(F)c1 (stereo not drawn) [Compound 31, N-(1-(2-chlorophenyl)-2-(cyclohexylamino)-2-oxoethyl)-N-(3-fluorophenyl)-1,2,3,4-tetrahydroquinoline-2-carboxamide]",≤ 100 nM,100 to 500 nM
O=C(NC1CCCCC1)C(c1ccccc1Cl)N(C(=O)C1Cc2ccccc2N1)c1cccc(F)c1 (stereo not drawn) [Compound 32],100 to 500 nM,100 to 500 nM
CC(C)(C)OC(=O)N1CCC[C@H]1C(=O)N(c1cccc(F)c1)[C@H](C(=O)NC1CC(F)(F)C1)c1ccccc1Cl [Compound 39],500 to 1000 nM,–
O=C(NC1CC(F)(F)C1)C(c1ccccc1Cl)N(C(=O)c1cccc2nccn12)c1cccc(F)c1 (stereo not drawn) [Compound 40],500 to 1000 nM,–
"COC(=O)N1CCC[C@H]1C(=O)N(c1cccc(F)c1)[C@H](C(=O)NC1CC(F)(F)C1)c1ccccc1Cl [Compound 42, (S)-methyl 2-(((S)-1-(2-chlorophenyl)-2-((3,3-difluorocyclobutyl)amino)-2-oxoethyl)(3-fluorophenyl)carbamoyl)pyrrolidine-1-carboxylate]",≤ 100 nM,100 to 500 nM
CNS(=O)(=O)c1cccc(N(C(=O)[C@@H]2CCCN2C(=O)OC)[C@H](C(=O)NC2CC(F)(F)C2)c2ccccc2Cl)c1 [Compound 58],100 to 500 nM,–
"O=C(NC1CC(F)(F)C1)C(c1ccccc1Cl)N(C(=O)CN1CCOC1=O)c1cccc(F)c1 (stereo not drawn) [Compound 60, 2-(2-chlorophenyl)-N-(3,3-difluorocyclobutyl)-2-(N-(3-fluoro-phenyl)-2-(2-oxooxazolidin-3-yl)acetamido)acetamide]",500 to 1000 nM,–
O=C(NC1CC(F)(F)C1)[C@H](c1ccccc1Cl)N(C(=O)C1CCN1c1ncccn1)c1cccc(F)c1 (stereo partly drawn) [Compound 103],–,1000 to 2000 nM

# Results, then the compound that gave them:
IC50 (IDH1 R132H),IC50 (HT1080 cells),Structure (SMILES)
100 to 500 nM,500 to 1000 nM,Cc1ccccc1C(C(=O)NC1CCC(F)(F)CC1)N(C(=O)Cn1ccnc1C(F)(F)F)c1cccc(F)c1 (stereo not drawn) [Compound 11]
–,100 to 500 nM,Cc1ccccc1C(C(=O)NC1CCC(F)(F)CC1)N(C(=O)CNc1cccnc1F)c1cccc(F)c1 (stereo not drawn) [Compound 16]
–,100 to 500 nM,O=C(NC1CCCCC1)C(c1ccccc1Cl)N(C(=O)Cn1cnc(Cl)c1Cl)c1cccc(F)c1 (stereo not drawn) [Compound 21]
100 to 500 nM,500 to 1000 nM,N#Cc1ncn(CC(=O)N(c2cccc(F)c2)C(C(=O)NC2CCCCC2)c2ccccc2Cl)c1C#N (stereo not drawn) [Compound 22]
100 to 500 nM,500 to 1000 nM,N#Cc1cccc(N(C(=O)Cn2cnc(Cl)c2Cl)C(C(=O)NC2CCCCC2)c2ccccc2Cl)c1 (stereo not drawn) [Compound 27]
100 to 500 nM,–,N#Cc1ccccc1C(C(=O)NC1CCCCC1)N(C(=O)Cn1cnc(Cl)c1Cl)c1cccc(F)c1 (stereo not drawn) [Compound 28]
100 to 500 nM,500 to 1000 nM,"O=C(NC1CCCCC1)C(c1ccc(F)cc1F)N(C(=O)Cn1cnc(Cl)c1Cl)c1ccc(F)c(F)c1 (stereo not drawn) [Compound 30, N-cyclohexyl-2-(2-(4,5-dichloro-1H-imidazol-1-yl)-N-(3,4-difluorophenyl)acetamido)-2-(2,4-difluorophenyl)acetamide]"
≤ 100 nM,100 to 500 nM,O=C(NC1CCC(F)(F)CC1)C(c1ccccc1Cl)N(C(=O)Cn1cnc(Cl)c1Cl)c1cccc(F)c1 (stereo not drawn) [Compound 33]
500 to 1000 nM,–,O=C(NC1CCC(F)(F)CC1)C(c1ccccc1Cl)N(C(=O)c1cc2ccccc2[nH]1)c1cccc(F)c1 (stereo not drawn) [Compound 34]
100 to 500 nM,–,O=C(NC1CCC(F)(F)CC1)C(c1ccccc1Cl)N(C(=O)Cn1cncn1)c1ccc(F)c(F)c1 (stereo not drawn) [Compound 37]
100 to 500 nM,–,O=C(NC1CCC(F)(F)CC1)C(c1ccccc1Cl)N(C(=O)Cn1cnc(Cl)c1Cl)c1ccc(F)c(F)c1 (stereo not drawn) [Compound 38]
500 to 1000 nM,–,CC(C)(C)OC(=O)N1CCC[C@H]1C(=O)N(c1cccc(F)c1)[C@H](C(=O)NC1CCC(F)(F)CC1)c1ccccc1Cl [Compound 44]
100 to 500 nM,1000 to 2000 nM,O=C(NC1CCC(F)(F)CC1)C(c1ccccc1Cl)N(C(=O)Cn1cncn1)c1cccc(F)c1 (stereo not drawn) [Compound 45]
100 to 500 nM,–,Cc1nccn1CC(=O)N(c1cccc(F)c1)C(C(=O)NC1CC(F)(F)C1)c1ccccc1Cl (stereo not drawn) [Compound 59]
